Article PMC9321718 (Pharmaceuticals, 2022)
Converted amounts (≈) assume the structure as drawn. “Also recorded” adds a separate entry of the source.

Assays:
[1] = Formation of inclusion complexes with MCD (UV spectroscopy, Hill linearization); type: physicochemical; conditions: MCD; for EE, % / LC, %: C(MCD) = 0.01 M, pH 6.2, 22 °C; for n: Xaq + n MCDaq ⇌ X·nMCDaq, 5 mM sodium phosphate buffer pH 6.2, 22 °C
Method: To optimize the system composition, similar experiments were carried out on the formation of EG and apiol inclusion complexes with HPCD (Figure S1). […] According to these changes, the dissociation constants of the EG–HPCD and apiol–HPCD complexes (Figure S2) were calculated by Hill’s equation (Table 1). […] The physicochemical parameters of the interaction of APAB and terpenoids (X) with CD were studied by determining the concentration of substances in the aqueous fraction ([APAB] + [APAB-MCD]) according to the calibration dependence (Figure 1C) for systems with a constant amount of the essential oil component X and the concentration gradient MCD (Table 1). Theta (θ) is a fraction of the bound substance X:θ = [X-MCD]/([X-MCD] + [X]) and was calculated based on the dependence of the absorption intensity X on the MCD concentration in the system in the form of a sigmoidal Hill curve with subsequent linearization (Section 3, Section 3.3 and Section 3.4).
The molar excess of CD varied from 0.04 to 10). Further, the complexes were incubated for 1 h at 37 °C and then centrifuged ([…], 15 min, Eppendorf tubes) to separate the insoluble fractions. Complexes were studied by UV and FTIR spectroscopy.
UV spectra of solutions (point 3.3.1) were recorded on the AmerSham Biosciences UltraSpec 2100 pro device (USA) three times in the range of 200–400 nm in a quartz cell Hellma 100–QS with an optical path of 1 cm. Background spectrum (5 mM sodium phosphate buffer (pH 6.2) with 50% EtOH) was subtracted as a blank.
(1) Calculation of the dissociation constants X–MCD and X–HPCD, where X is a “guest” compound, considering the equilibrium: Xaq + n MCDaq ↔ X·nMCDaq, where Kd = [MCDaq]^n · [Xaq]/[X·nMCDaq].
First, fitting of the curves of change of the analytical signal ξ (peak intensity or peak position) versus concentration of the MCD or HPCD or was carried out using the Hill equations: (1) ξ = ξ∞ · [MCD]^n/([MCD]^n + K^n), where ξ∞—horizontal asymptote; (2) ξ = ξ0 + (ξ∞–ξ0) · [MCD]^n/([MCD]^n + K^n). Second, calculation n and Kd values by Hill’s linearization in n-binding site model: lg (θ/(1 – θ)) = n · lg [L] – lg Kd, where θ = |(ξ – ξ0)/(ξ∞ − ξ0)|is a fraction of the bound substance. N in Hill equation—number of drug molecules per CD torus.
Calculations for the following items are performed when [MCD] = 0.01 M.

E. coli = experiment: Synergy of adjuvant-MCD with Lev-MCD, growth inhibition zones in agar; type: cell-based, Escherichia coli; conditions: for D, diameter of bacterial inhibition zone surrounding Lev–MCD with APAB-MCD: Lev-MCD + X-MCD (1:2), ±0.5; for ϕLev = (D/DLev)^2: ±0.1; for FICI: ±15%; for increase in Lev antibacterial activity / efficacy: growth inhibition diameter measurement in agar, inclusion complexes with MCD
Method: (§1) We obtained complex formulations containing adjuvants-MCD and Lev-MCD. These complexes were referred to as enhanced Lev. The synergy effect was studied at a constant concentration of Lev and a variable concentration of an enhancer. […] Based on the D/DLev ratio, the effectiveness of cooperative antibacterial action (ϕ) of the adjuvant and Lev was calculated. The fractional inhibitory concentration (FIC) parameter was introduced: at a fixed Lev concentration, the FIC of adjuvant corresponds to the minimum fractional adjuvant concentration at which the antibacterial effect was still manifest (MICadjuvant in the presence of Lev). The fractional inhibitory concentration index (FICI) characterizes the ratio of the active Lev and adjuvant concentrations to the MIC values of these substances individually: FICI=[Lev]/MIC(Lev)[…][adjuvant]/MIC(adjuvant) (see Section 3).
(§2) The FICI was interpreted as: synergism (<0.35), additivity (0.35–0.75), indifference (0.75–1.4), or antagonism (>1.4). FICI is designed to determine the type of Lev interaction with adjuvants.
(§3) The study of the antibacterial effect of Lev and adjuvants was carried out by (a) agar diffusion test and (b) broth micro-dilution method. (a) A measured 500 µL of 100-fold culture dilution was evenly distributed over a solid nutrient medium (LB, pH 7.2) on a Petri dish. After 20 min, agar disks with a diameter of 9 mm were removed from the cups and 50 µL of the test samples were placed in the formed wells at the required concentration in a sterile PBS buffer (see Section 3.3 (2)). After 30 min, Petri dishes were placed in a 37 °C thermostat. […] Minimum inhibitory concentrations (MICs) are determined as the infimum of multiple concentrations of an antimicrobial that inhibits the visible growth of a microorganism after overnight incubation. (b) According to the standard broth micro-dilution method, 200 µL of the overnight culture (5 × 10^6 CFU) was placed into a 96 micro-titer plate wells. Then 50 µL of tested samples was added. The range of tested Lev concentration was 4–200 ng/mL, adjuvants concentration was in the range of 0.008–2 mg/mL. […] The dependence of CFU (determined by A600) on the concentration of Lev, APAB or terpenoid (briefly X) was approximated according to the Boltzmann equation (Origin software): CFU = (control CFU)/(1 + exp(([X] − MIC50)/constant value)). […] In other words, the concentration at which the ordinate value (CFU) is equal to 50 or 10% of the control sample minus the background.
(§4) The FICI was interpreted as: synergism (<0.35), additivity (0.35–0.75), indifference (0.76–1.4), or antagonism (>1.4). The essence of this expression is to calculate the average change in the effective concentration compared to MIC. Note that the most important parameter corresponds to a decrease in MIC of Lev. However, FICI is designed to determine the type of interaction Lev with adjuvants.

B. subtilis = experiment: as above; type: cell-based, Bacillus subtilis; conditions: for D, diameter of bacterial inhibition zone surrounding Lev–MCD with APAB-MCD: Lev-MCD + X-MCD (1:2), ±0.5; for ϕLev = (D/DLev)^2: ±0.1
Method: as §1, §2, §3, §4

physchem = conditions: 22 °C, pH 6.2, water
Method: (3) Solubility of X in water C0 = [Xaq] = A/(ε · l) was determined by UV absorbance after centrifugation of samples (10 min, 10,000× g). l = 1 cm. ε—molar absorbance coefficient (Figure 1C).

With `CC1CCC(C(C)C)C(O)C1` (centres unmarked) [Menthol] the “EE, %” value [1] was 91 ± 6%, the “LC, %” value [1] was 11 ± 1% and the “EE, %” value ([1]; listed as menthol) was “more than 90%”. For the same compound, the n [1] was 1.1 ± 0.1, the “decrease of MICLev in the presence of adjuvant” value (E. coli; E. coli) was “up to twice” and the “D, diameter of bacterial inhibition zone surrounding Lev–MCD with APAB-MCD” value (E. coli; E. coli, CLev 0.1 μg/mL) was 13.5 mm. For the same compound, the “ϕLev = (D/DLev)^2” value (E. coli; E. coli, CLev 0.1 μg/mL) was 1.7, the FICI (E. coli; E. coli, CLev 0.1 μg/mL) was 0.02 and the “D, diameter of bacterial inhibition zone surrounding Lev–MCD with APAB-MCD” value (E. coli; E. coli, CLev 0.15 μg/mL) was 14 mm. The “ϕLev = (D/DLev)^2” value (E. coli; E. coli, CLev 0.15 μg/mL) was 2.0, the FICI (E. coli; E. coli, CLev 0.15 μg/mL) was 0.15 and the “increase in Lev antibacterial activity / efficacy” value (E. coli) was “two–three-fold”. For the same compound, the FICadjuvant (B. subtilis; B. subtilis, CLev 0.5 μg/mL) was 0.17 ± 0.01 mg/mL, the “Type of Interaction between Lev and X” value (B. subtilis; B. subtilis, CLev 0.5 μg/mL) was “Synergism (synergism (<0.35))” and the “D, diameter of bacterial inhibition zone surrounding Lev–MCD with APAB-MCD” value (B. subtilis; B. subtilis, CLev 0.5 μg/mL) was 18.5 mm. The “ϕLev = (D/DLev)^2” value (B. subtilis; B. subtilis, CLev 0.5 μg/mL) was 2.4, the FICI (B. subtilis; B. subtilis, CLev 0.5 μg/mL, ±15%) was 0.11 and the FICadjuvant (B. subtilis; B. subtilis, CLev 1 μg/mL) was 0.17 ± 0.01 mg/mL. The “Type of Interaction between Lev and X” value (B. subtilis; B. subtilis, CLev 1 μg/mL) was “Synergism (synergism (<0.35))”, the “D, diameter of bacterial inhibition zone surrounding Lev–MCD with APAB-MCD” value (B. subtilis; B. subtilis, CLev 1 μg/mL) was 18 mm and the “ϕLev = (D/DLev)^2” value (B. subtilis; B. subtilis, CLev 1 μg/mL) was 1.3. The FICI (B. subtilis; B. subtilis, CLev 1 μg/mL, ±15%) was 0.23, the “efficiency parameter ϕ” value (B. subtilis; B. subtilis, adjuvant-MCD with Lev-MCD) was 2.4 and the FICI (B. subtilis; B. subtilis, with Lev) was 0.08–0.11. The solubility (physchem) was 0.23 ± 0.04 mM (≈ 35.9 µg/mL).

For `C=CCc1ccc(O)c(OC)c1` [Eugenol, 4-allyl-2-methoxyphenol], the “EE, %” value [1] was 39 ± 3%, the “LC, %” value [1] was 10 ± 1% and the n [1] was 1.32 ± 0.08. The “D, diameter of bacterial inhibition zone surrounding Lev–MCD with APAB-MCD” value (E. coli; E. coli, CLev 0.03 μg/mL) was 14 mm, the “ϕLev = (D/DLev)^2” value (E. coli; E. coli, CLev 0.03 μg/mL) was 2.0 and the FICI (E. coli; E. coli, CLev 0.03 μg/mL) was 0.30. For the same compound, the “D, diameter of bacterial inhibition zone surrounding Lev–MCD with APAB-MCD” value (E. coli; E. coli, CLev 0.05 μg/mL) was 17 mm, the “ϕLev = (D/DLev)^2” value (E. coli; E. coli, CLev 0.05 μg/mL) was 2.9 and the FICI (E. coli; E. coli, CLev 0.05 μg/mL) was 0.08. The “D, diameter of bacterial inhibition zone surrounding Lev–MCD with APAB-MCD” value (E. coli; E. coli, CLev 0.1 μg/mL) was 20 mm, the “ϕLev = (D/DLev)^2” value (E. coli; E. coli, CLev 0.1 μg/mL) was 3.3 and the FICI (E. coli; E. coli, CLev 0.1 μg/mL) was 0.10. For the same compound, the “D, diameter of bacterial inhibition zone surrounding Lev–MCD with APAB-MCD” value (E. coli; E. coli, CLev 0.15 μg/mL) was 15 mm, the “ϕLev = (D/DLev)^2” value (E. coli; E. coli, CLev 0.15 μg/mL) was 2.3 and the FICI (E. coli; E. coli, CLev 0.15 μg/mL) was 0.05. The “D, diameter of bacterial inhibition zone surrounding Lev–MCD with APAB-MCD” value (E. coli; E. coli, CLev 0.5 μg/mL) was 26 mm, the “ϕLev = (D/DLev)^2” value (E. coli; E. coli, CLev 0.5 μg/mL) was 1.3 and the FICI (E. coli; E. coli, CLev 0.5 μg/mL) was 1.3. For the same compound, the “amplification effect of adjuvant” value (E. coli; E. coli, at minimal Lev concentrations) was 3 fold, the “MICLev in the presence of adjuvant” value (E. coli; E. coli, reduced from 0.10 μg/mL) was 0.015 to 0.02 µg/mL and the “decrease of Lev MIC” value (E. coli; conclusions, bacterium not stated) was 3–4 times. For the same compound, the “increase in Lev antibacterial activity / efficacy” value (E. coli; listed as EG) was “over three-fold; also recorded: two–three-fold”, the FICadjuvant (B. subtilis; B. subtilis, CLev 0.4 μg/mL) was 0.10 ± 0.01 mg/mL and the “Type of Interaction between Lev and X” value (B. subtilis; B. subtilis, CLev 0.4 μg/mL) was “Synergism (synergism (<0.35))”. For the same compound, the “D, diameter of bacterial inhibition zone surrounding Lev–MCD with APAB-MCD” value (B. subtilis; B. subtilis, CLev 0.4 μg/mL) was 14.5 mm, the “ϕLev = (D/DLev)^2” value (B. subtilis; B. subtilis, CLev 0.4 μg/mL) was 1.5 and the FICI (B. subtilis; B. subtilis, CLev 0.4 μg/mL, ±15%) was 0.16. For the same compound, the FICadjuvant (B. subtilis; B. subtilis, CLev 0.7 μg/mL) was 0.2 ± 0.02 mg/mL, the “Type of Interaction between Lev and X” value (B. subtilis; B. subtilis, CLev 0.7 μg/mL) was “Additivity (additivity (0.35–0.75))” and the “D, diameter of bacterial inhibition zone surrounding Lev–MCD with APAB-MCD” value (B. subtilis; B. subtilis, CLev 0.7 μg/mL) was 16 mm. The “ϕLev = (D/DLev)^2” value (B. subtilis; B. subtilis, CLev 0.7 μg/mL) was 1.2, the FICI (B. subtilis; B. subtilis, CLev 0.7 μg/mL, ±15%) was 0.56 and the FICadjuvant (B. subtilis; B. subtilis, CLev 1.5 μg/mL) was 0.10 ± 0.01 mg/mL. The “Type of Interaction between Lev and X” value (B. subtilis; B. subtilis, CLev 1.5 μg/mL) was “Additivity (additivity (0.35–0.75))”, the “D, diameter of bacterial inhibition zone surrounding Lev–MCD with APAB-MCD” value (B. subtilis; B. subtilis, CLev 1.5 μg/mL) was 19 mm and the “ϕLev = (D/DLev)^2” value (B. subtilis; B. subtilis, CLev 1.5 μg/mL) was 1.2. For the same compound, the FICI (B. subtilis; B. subtilis, CLev 1.5 μg/mL, ±15%) was 0.60, the “type of interaction with Lev” value (B. subtilis; Gram-positive cells (B. subtilis)) was “additivity” and the solubility (physchem) was 8.2 ± 0.2 mM (≈ 1350 µg/mL).

For `C=CCc1cc(OC)c2c(c1OC)OCO2` [Apiol], the “EE, %” value [1] was 20 ± 2%, the “LC, %” value [1] was 11 ± 1% and the n [1] was 1.6 ± 0.2. The “decrease of MICLev in the presence of adjuvant” value (E. coli; E. coli) was “up to twice”, the “D, diameter of bacterial inhibition zone surrounding Lev–MCD with APAB-MCD” value (E. coli; E. coli, CLev 0.1 μg/mL) was 14.5 mm and the “ϕLev = (D/DLev)^2” value (E. coli; E. coli, CLev 0.1 μg/mL) was 1.6. For the same compound, the FICI (E. coli; E. coli, CLev 0.1 μg/mL) was 0.35, the “D, diameter of bacterial inhibition zone surrounding Lev–MCD with APAB-MCD” value (E. coli; E. coli, CLev 0.15 μg/mL) was 14 mm and the “ϕLev = (D/DLev)^2” value (E. coli; E. coli, CLev 0.15 μg/mL) was 2.0. For the same compound, the FICI (E. coli; E. coli, CLev 0.15 μg/mL) was 0.20.
